# Read-outs that look alike come from different tables or passages of the source. Bridge positions count the residues as written; N and C are the ends. Ends that are not written are not given here. Peptide text beside a SMILES is read from it.
# Assays:
# chicken rectum = test system: chicken rectum
# Experimental: Relaxant activity in chicken rectum was measured in accordance with the method of […] and Currie ([…]. and Matsuo, H., Biochem. Biophys. Res. Commun., 118, 131-139, 1984; Currie, […]., Cole, […]. and Needleman, P. Science, 221, 71-73, 1983). The values are averages of six repeats. […] Although fCNP lacked the tail sequence at the C-terminal which had been considered to be important for analog peptides in displaying biological activities such as diuretic action (Watanabe, T. X., Noda, Y., Chino […]. and Imai, M. Eur. J. […] Relative activity is defined as the activity of equimolar amount of peptides when the activity of α-hANP is 100.
# anesthetized rats [1] = assay: Diuretic and natriuretic action in anesthetized rats; format: in vivo, rat; conditions: for excretion Cl- / excretion K+ / excretion Na+ / excretion urine: urine collected 15 min before and after injection, Means±S.E.M., three rats
# Experimental: (§1) Diuretic action of fCNP was measured in accordance with the method described in Kangawa et al and Sudoh et al (Kangawa, K. et al., Biochem. Biophys. Res. Commun., 118, 131-139, 1984; Sudoh, T., Kangawa, K., Minamino, N. and Matsuo, H. Nature, 332, 78-81 , 1988). Male SD rats (weight 300-400 g) were anesthetized by intraperitoneally receiving 50 mg/kg pentobarbital, and a tracheal cannula (PE-240, Cray Adams) was provided to secure an airway. A cannula for measuring the blood pressure (PE-50) was inserted into one of the femoral arteries, and Ringer solution was injected through a cannula (PE-10) inserted into the femoral venous, at a constant rate of 1.8 ml/hr. Urine was collected into a test tube through a bladder cannula of silastic tube (inside diameter 0.02 inch, outside diameter 0.037 inch, Dow Corning). The collection of urine was carried out for 15 min before the administration of the peptides, at 5 min intervals after the administration till 15 min, and then at appropriate time intervals. The effect of the peptides was measured by comparing the amount of the urine samples and the concentration of the electrolyte in the urine samples, as well as by the change of the blood pressure.
# In the above assay, a predetermined amount of fCNP was dissolved in 0.1N acetic acid, and neutralized with one tenth volume of 1.3M Tris solution. Then, the solution was diluted with 50 μl of a sterile physiological water, and administered through the cervical vein.
# In Table 3, diuretic and natriuretic responses are shown in terms of the amount of the urine, the percentages in the decreases of the excretion of Na^+, K^+ and Cl^- (Means±S.E.M.), in which urine samples were collected separately over 15 min before and after the intravenous injection of the peptides to anesthetized rats. Three rats were used for each peptide.
# anesthetized rats [2] = assay: Vasodepressor action (blood pressure) in anesthetized rats; format: in vivo, rat; parameters: decrease of blood pressure at the contract phase of heart: unit not given here
# Experimental: as §1, with “Kangawa” left out, “([…].” for “(Kangawa, K.”, “[…].,” for “T., Kangawa, K.,”, “pressure. In the above assay, a predetermined amount of fCNP was dissolved in 0.1N acetic acid, and neutralized with one tenth volume of 1.3M Tris solution. […]” for “pressure.”
# [3] = relaxant activity of equimolar amount of peptide, activity of α-hANP = 100, averages of six repeats
compound,measurement,setting,value
CC[C@H](C)[C@@H]1NC(=O)[C@H](CCCNC(=N)N)NC(=O)[C@H](CC(=O)O)NC(=O)[C@H](CC(C)C)NC(=O)[C@H](CCCCN)NC(=O)[C@H](C(C)C)NC(=O)CNC(=O)[C@H](Cc2ccccc2)NC(=O)[C@@H](NC(=O)CNC(=O)[C@H](CCCNC(=N)N)NC(=O)[C@H](CO)NC(=O)[C@H](Cc2ccc(O)cc2)NC(=O)CN)CSSC[C@@H](C(=O)O)NC(=O)CNC(=O)[C@H](CC(C)C)NC(=O)CNC(=O)[C@H](CO)NC(=O)[C@H](Cc2ccccc2)NC(=O)[C@H](C)NC(=O)CNC1=O [fCNP] (H-GYSRGCFGVKLDRIGAFSGLGC-OH; disulfide 6-22),relative activity,chicken rectum,321
same,relaxant activity in chicken rectum (in words),chicken rectum,strong relaxant activity which was comparable to pCNP
same,relaxant activity in chicken rectum (in words),chicken rectum; listed as synthetic fCNP,positive relaxant activity
same,"relaxant activity, times higher than fANP-21",chicken rectum; relative to fANP-21,~7 times
same,"relaxant activity, times higher than α-hANP",chicken rectum; relative to α-hANP,about 3 times
same,excretion Cl-,anesthetized rats [1]; 30 μg/kg intravenous,193 ± 50%
same,excretion K+,anesthetized rats [1]; 30 μg/kg intravenous,163 ± 54%
same,excretion Na+,anesthetized rats [1]; 30 μg/kg intravenous,184 ± 26%
same,excretion urine,anesthetized rats [1]; 30 μg/kg intravenous,192 ± 51%
same,excretion Cl-,anesthetized rats [1]; 100 μg/kg intravenous,251 ± 43%
same,excretion K+,anesthetized rats [1]; 100 μg/kg intravenous,217 ± 58%
same,excretion Na+,anesthetized rats [1]; 100 μg/kg intravenous,344 ± 36%
same,excretion urine,anesthetized rats [1]; 100 μg/kg intravenous,315 ± 24%
same,excretion Cl-,anesthetized rats [1]; 300 μg/kg intravenous,369 ± 6%
same,excretion K+,anesthetized rats [1]; 300 μg/kg intravenous,210 ± 33%
same,excretion Na+,anesthetized rats [1]; 300 μg/kg intravenous,428 ± 29%
same,excretion urine,anesthetized rats [1]; 300 μg/kg intravenous,410 ± 27%
same,diuretic and natriuretic actions compared to that of α-hANP,"anesthetized rats [1]; ratio to α-hANP, anesthetized rats",about 1/100
same,decrease of blood pressure at the contract phase of heart,"anesthetized rats [2]; 10 nmol of fCNP, over a period of 30 min, typical experiment",25-30
same,vasodepressor action (in words),anesthetized rats [2]; anesthetized rats,weak vasodepressor action
"pBNP-26: diuretic peptide; B-type (brain) natriuretic peptide (DSGCFGRRLDRIGSLSGLGCNVLRRY; ends and bridges not checked; cysteine pairing not given here; UniProt P07634 106-131, looked up) [reference compound]",relative activity,chicken rectum; [3],270
"α-hANP: A-type (atrial) natriuretic peptide used as reference, activity set to 100 (SLRRSSCFGGRMDRIGAQSGLGCNSFRY; ends and bridges not checked; cysteine pairing not given here; UniProt P01160 124-151, looked up) [reference compound]",relative activity,chicken rectum; [3],100
same,excretion Cl-,anesthetized rats [1]; 3.0 μg/kg intravenous,445 ± 67%
same,excretion K+,anesthetized rats [1]; 3.0 μg/kg intravenous,291 ± 19%
same,excretion Na+,anesthetized rats [1]; 3.0 μg/kg intravenous,572 ± 84%
same,excretion urine,anesthetized rats [1]; 3.0 μg/kg intravenous,461 ± 51%

# Reference: patent publication US5336759A, “Biologically active peptide derived from frog (frog CNP)” (priority 1990, dated 1994)
